Results as given in PMC4459817, “Vasculotide reduces endothelial permeability and tumor cell extravasation in the absence of binding to or agonistic activation of Tie2” (EMBO Molecular Medicine, 2015).

B1: recombinant human Ang1 (rhAng1) (ligand, UniProt Q15389 16-498, looked up)
chain: HIGCSNQRRSPENSGRRYNRIQHGQCAYTFILPEHDGNCRESTTDQYNTNALQRDAPHVEPDFSSQKLQHLEHVMENYTQWLQKLENYIVENMKSEMAQIQQNAVQNHTATMLEIGTSLLSQTAEQTRKLTDVETQVLNQTSRLEIQLLENSLSTYKLEKQLLQQTNEILKIHEKNSLLEHKILEMEGKHKEELDTLKEEKENLQGLVTRQTYIIQELEKQLNRATTNNSVLQKQQLELMDTVHNLVNLCTKEGVLLKGGKREEEKPFRDCADVYQAGFNKSGIYTIYINNMPEPKKVFCNMDVNGGGWTVIQHREDGSLDFQRGWKEYKMGFGNPSGEYWLGNEFIFAITSQRQYMLRIELMDWEGNRAYSQYDRFHIGNEKQNYRLYLKGHTGTAGKQSSLILHGADFSTKDADNDNCMCKCALMLTGGWWFDACGPSNLNGMFYTAGQNHGKLNGIKWHYFKGPSYSLRSTTMMIRPLDF
notes: angiopoietin-1, human, recombinant; also called angiopoietin-1; source: bought: R&D Systems (named for the Boyden chamber experiments)

System: mouse Tie2-Fc (extracellular domain of Tie2)
Experiment: pull-down assay, mouse Tie2-Fc
Format: binding
Settings: mouse Tie2-Fc on protein A sepharose; rhAng1 20 ng or VT 100 ng, pH 7.4, 4°C; Fig9A,B
From the text: To better understand the difficulties we had in observing Tie2 activation by VT, we sought to characterize the binding affinity and kinetics of VT to Tie2. Purified human or mouse Tie2-Fc (i.e., Fc-conjugated extracellular domains of Tie2) were first coupled to protein A sepharose beads for pull-down experiments (Fig9A and B) or immobilized on a Biacore CM5 sensor chip for surface plasmon resonance (SPR) experiments (Fig9C and Supplementary Fig S3).
Figure 9 Binding of Vasculotide vs. Ang1 variants to the extracellular domain of Tie2 • A–B Pull-down assay. Input ligands—rhAng1 (A) and VT (B)—were incubated with either protein A sepharose beads only, bead-conjugated mouse Tie2-Fc (mTie2), or bead-conjugated human Tie2-Fc (hTie2). […] The ‘unbound’ fraction is 7% of residual/free ligands remaining in the supernatant. • C Quantitative kinetics analysis by SPR. All analytes were run at increasing concentrations of 0.625, 1.25, 2.5, 5, and 10 nM, at 37°C and pH 7.4. […] Source data are available online for this figure. […]
Semi-quantitative densitometry analysis of immunoblots was performed using the ChemiGenius2 bioimaging system and GeneSnap/GeneTools software (Syngene). […]

| Molecule | pull-down by Tie2-Fc |
| --- | --- |
| CHHHRHSF [Vasculotide, 4-armed maleimide-functionalized polyethylene glycol (PEG) backbone to link together four cysteine-capped T7 peptides, that is, CHHHRHSF] | did not pull down any appreciable levels |
| B1 | effectively pulled down the majority |
